# Measured values reported in patent US20020132853A1, “Capsaicin receptor ligands” (priority 2000, published 2002).
# Biological target: T1, human capsaicin receptor (Homo sapiens, UniProt Q8NER1)
# T1 construct: expression consrtuct encoding the full length human capsaicin receptor; expressed in transfected cells
# Assay: Antagonist assay for Capsaicin receptor mediated calcium mobilization
# Assay type: cell-based
# Conditions: Table III, read-out: EC50 (the source's name)
# Experimental: Calcium Mobilization Assay
# Cells transfected with expression plasmids (as described in Example 10) and thereby expressing the human capsaicin receptor are seeded and grown to 70-90% confluency in FALCON black-walled, clear-bottomed 96-well plates (#3904, BECTON-DICKINSON, Franklin Lakes, N.J.) . The culture media are emptied from the 96 well plates and FLUO-3 AM calcium sensitive dye (Molecular Probes, Eugene, OR) is added to each well (dye solution: 1 mg FLUO-3 AM, 440 uL DMSO and 440 ul 20% pluronic acid in DMSO, diluted 1:4, 50 ul diluted solution per well). Plates are covered with aluminum foil and incubated at 37° C for 1-2 hours in an environment containing 5% CO2. After the incubation the dye is emptied from the plates, and the cells are washed once with Krebs-Ringer HEPES (KRH) buffer (25 mM HEPES, 5 mM KCl, 0.96 mM NaH2PO4, 1 MM MgSO4, 2 mM CaCl2, 5 mM glucose, 1 mM probenecid, pH 7.4), and resuspended in KRH buffer.
# Agonist (e.g., olvanil, capsaicin, or RTX)-induced calcium mobilization is monitored using either FLUOROSKAN ASCENT (Labsystems, Franklin, Mass.) or FLIPR (fluorometric imaging plate reader system, Molecular Devices, Sunnyvale, Calif.) instruments. Similarly, varying concentrations of the antagonists ruthenium red or capsazepine are added to cells concurrently with agonist (e.g., 25-50 nM capsaicin). For agonist-induced calcium responses, data obtained between 30 and 60 seconds after agonist application are used to generate the EC50 values. […] software (Synergy Software, Reading, Pa.) was utilized to fit the data to the equation: […]
# to determine the EC50 for the response. In this equation, y is the maximum fluorescence signal, x is the concentration of the agonist or antagonist, a is the Emax, b corresponds to the EC50 or IC50 value, and finally, c is the Hill coefficient.
# Assay for Determination of Capsaicin Receptor Antagonist Effects
# In order to measure the ability of a test compound to antagonize (inhibit) the response of cells expressing capsaicin receptors to capsaicin or other vanilloid agonist, the EC50 of capsaicin is first determined.
# An additional 20 ul of KRH buffer and 1 ul DMSO is added to each well of cells, prepared as described above. 100 ul capsaicin in KRH buffer is automatically transferred by the FLIPR instrument to each well.
# Test compounds are dissolved in DMSO, diluted in 20 ul KRH buffer so that the final concentration of test compounds in the assay well is between 1 uM and 5 uM, and added to cells prepared as described above. The 96 well plates containing prepared cells and test compounds are incubated in the dark, at room temperature for 0.5-6 hours. It is important that the incubation not continue beyond 6 hours. Just prior to determining the fluorescence response, 100 ul capsaicin in KRH buffer at twice the EC50 concentration determined from the concentration response curve is automatically added by the FLIPR instrument to each well of the 96 well plate for a final sample volume of 200 ul and a final capsaicin concentration equal to the EC50. The final concentration of test compounds in the assay wells is between 1 uM and 5 uM. […] Antagonists of the capsaicin receptor decrease this response by about 20%, preferably by about 50%, and most preferably by at least 80% as compared to matched control. The concentration of antagonist required to provide a 50% decrease is the EC50 for the antagonist (also referred to as the IC50).
# T1 sequence (Q8NER1 whole entry): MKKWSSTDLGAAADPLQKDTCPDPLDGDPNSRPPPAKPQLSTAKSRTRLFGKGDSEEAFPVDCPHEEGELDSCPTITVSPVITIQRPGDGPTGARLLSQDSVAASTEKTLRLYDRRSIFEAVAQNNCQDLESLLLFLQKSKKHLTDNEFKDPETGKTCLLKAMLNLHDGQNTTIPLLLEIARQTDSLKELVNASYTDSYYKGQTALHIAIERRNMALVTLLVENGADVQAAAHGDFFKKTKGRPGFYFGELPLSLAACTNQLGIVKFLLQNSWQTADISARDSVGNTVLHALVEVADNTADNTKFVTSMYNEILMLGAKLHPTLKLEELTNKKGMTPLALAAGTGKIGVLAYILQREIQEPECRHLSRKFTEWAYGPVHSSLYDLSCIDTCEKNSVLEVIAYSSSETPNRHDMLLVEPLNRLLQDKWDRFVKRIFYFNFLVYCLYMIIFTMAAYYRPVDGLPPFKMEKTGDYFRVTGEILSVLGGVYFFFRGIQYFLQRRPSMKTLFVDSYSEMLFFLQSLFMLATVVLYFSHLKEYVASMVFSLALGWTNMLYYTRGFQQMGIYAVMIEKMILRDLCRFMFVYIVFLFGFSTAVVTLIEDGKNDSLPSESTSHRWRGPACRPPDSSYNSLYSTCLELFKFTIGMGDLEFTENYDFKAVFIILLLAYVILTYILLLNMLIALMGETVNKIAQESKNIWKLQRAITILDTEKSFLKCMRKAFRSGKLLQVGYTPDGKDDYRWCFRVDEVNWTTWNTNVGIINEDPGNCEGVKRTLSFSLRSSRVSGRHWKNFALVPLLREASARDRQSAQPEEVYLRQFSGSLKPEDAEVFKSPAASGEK
row,Compound,IC50 [nM]
1,"CC(C)C1CN(c2ncccc2Cl)CCN1C(=O)Nc1ccc(C(C)(C)C)cc1 (stereo not shown) [Compound 69, N-(4-tert-butylphenyl)-4-(3-chloropyridin-2-yl)-2-isopropylpiperazine-1-carboxamide]",< 1000
2,"CC(C)C1CN(c2ncccc2C(F)(F)F)CCN1C(=O)Nc1ccc(C(C)(C)C)cc1 (stereo not shown) [Compound 72, N-(4-tert-butylphenyl)-2-isopropylk-4-[3-(trifluoromethyl)pyridin-2-yl]piperazine-1-carboxamide]",< 1000
3,"CC(C)C1CN(c2ncccc2C(F)(F)F)CCN1C(=O)Nc1ccc(C(F)(F)F)cc1 (stereo not shown) [Compound 73, 2-isopropyl-N-[4-(trifluoromethyl)phenyl]-4-[3-(trifluoromethyl)pyridin-2-yl]piperazine-1-carboxamide]",< 1000
4,"CC(C)c1ccc(NC(=O)N2CCN(c3ncccc3C(F)(F)F)CC2C(C)C)cc1 (stereo not shown) [Compound 74, 2-isopropyl-N-(4-isopropylphenyl)-4-[3-(trifluoromethyl)pyridin-2-yl]piperazine-1-carboxamide]",< 1000
5,"C[C@@H]1CN(c2ncccc2F)CCN1C(=O)Nc1ccc(C(F)(F)F)cc1 [Compound 75, (2R)-4-(3-fluoropyridin-2-yl)-2-methyl-N-[4-(trifluoromethyl)phenyl]piperazine-1-carboxamide]",< 1000
6,"CC(C)c1ccc(NC(=O)N2CCN(c3ncccc3F)C[C@H]2C)cc1 [Compound 77, (2R)-4-(3-fluoropyridin-2-yl)-N-(4-isopropylphenyl)-2-methylpiperazine-1-carboxamide]",< 1000
7,"C[C@@H]1CN(c2ncccc2F)CCN1C(=O)Nc1ccc(C2CCCCC2)cc1 [Compound 78, (2R)-N-(4-cyclohexylphenyl)-4-(3-fluoropyridin-2-yl)-2-methylpiperazine-1-carboxamide]",< 1000
8,"C[C@@H]1CN(c2ncccc2F)CCN1C(=O)Nc1ccc(C2CCCC2)cc1 [Compound 79, (2R)-N-(4-cyclopentylphenyl)-4-(3-fluoropyridin-2-yl)-2-methylpiperazine-1-carboxamide]",< 1000
9,"C[C@@H]1CN(c2ncccc2C#N)CCN1C(=O)Nc1ccc(C(C)(C)C)cc1 [Compound 82, (2R)-N-(4-tert-butylphenyl)-4-(3-cyanopyridin-2-yl)-2-methylpiperazine-1-carboxamide]",< 1000
10,"C[C@@H]1CN(c2ncccc2C#N)CCN1C(=O)Nc1ccc(C(F)(F)F)cc1 [Compound 83, (2R)-4-(3-cyanopyridin-2-yl)-2-methyl-N-[4-(trifluoromethyl)phenyl]piperazine-1-carboxamide]",< 1000
11,"Cc1cccc(N2CCN(C(=O)Nc3ccc(C(C)(C)C)cc3)[C@H](C)C2)n1 [Compound 86, (2R)-N-(4-tert-butylphenyl)-2-methyl-4-(6-methylpyridin-2-yl)piperazine-1-carboxamide]",< 1000

# Same assay, conditions: Table IV, read-out: EC50 (the source's name)
row,Compound,IC50 [nM]
1,"O=C(Nc1ccc(C(F)(F)F)cn1)N1CCN(c2ncccc2Cl)CC1 [Compound 93, 4-(3-chloropyridin-2-yl)-N[5-(trifluoromethyl)pyridin-2-yl]piperazine-1-carboxamide]",< 1000
2,"C[C@@H]1CN(c2ncccc2Cl)CCN1C(=O)Nc1ccc(C(F)(F)F)cn1 [Compound 94, (2R)-4-(3-chloropyridin-2-yl)-2-methyl-N-[5-(trifluoromethyl)pyridin-2-yl]piperazine-1-carboxamide]",< 1000
3,"C[C@@H]1CN(c2nccnc2Cl)CCN1C(=O)Nc1ccc(C(C)(C)C)cc1 [Compound 95, (2R)-N-(4-tert-butylpghenyl)-4-(3-chloropyrazin-2-yl)-2-methylpiperazine-1-carboxamide]",< 1000
4,"CC(C)c1ccc(NC(=O)N2CCN(c3nccnc3Cl)C[C@H]2C)cc1 [Compound 96, (2R)-4-(3-chloropyrazin-2-yl)-N-(4-isopropylphenyl)-2-methylpiperazine-1-carboxamide]",< 1000
5,"C[C@@H]1CN(c2ncccc2Cl)CCN1C(=O)Nc1ccc(C(F)(F)F)nc1 [Compound 98, (2R)-4-(3-chloropyridin-2-yl)-2-methyl-N-[6-(trifluoromethyl)pyridin-3-yl]piperazine-1-carboxamide]",< 1000
6,"C[C@@H]1CN(c2ncccc2Cl)CCN1C(=O)NC1CCC(C(C)(C)C)CC1 (stereo partly drawn) [Compound 99, (2R)-N-(4-tert-butylcyclohexyl)-4-(3-chloropyridin-2-yl)-2-methylpiperazine-1-carboxamide]",< 1000
7,"CC(C)C1CCC(NC(=O)N2CCN(c3ncccc3Cl)C[C@H]2C)CC1 (stereo partly drawn) [Compound 100, (2R)-4-(3-chloropyridin-2-yl)-N-(4-isopropylcyclohexyl)-2-methylpiperazine-1-carboxamide]",< 1000
8,"CC(C)C1CCC(NC(=O)N2CCN(c3ncccc3C(F)(F)F)C[C@H]2C)CC1 (stereo partly drawn) [Compound 101, (2R)-N-(4-isopropylcyclohexyl)-2-methyl-4-[3-(trifluoromethyl)pyridin-2-yl]piperazine-1-carboxamide]",< 1000

# Same assay, conditions: Table V, read-out: EC50 (the source's name)
row,Compound,IC50 [nM]
1,"O=C(Nc1ccc(Cl)cc1)N1CCN(c2cc(C(F)(F)F)ccn2)CC1 [Compound 107, N-(4-chlorophenyl)-4-[4-(trifluoromethyl)pyridin-2-yl]piperazine-1-carboxamide]",< 1000
2,"O=C(Nc1ccc(OC(F)(F)F)cc1)N1CCN(c2cc(C(F)(F)F)ccn2)CC1 [Compound 108, N-[4-*trifluoromethoxy)phenyl]-4-[4-(trifluoromethyl)pyririn-2-yl]piperazine-1-carboxamide]",< 1000
3,"O=C(Nc1cccc(Cl)c1)N1CCN(c2cc(C(F)(F)F)ccn2)CC1 [Compound 109, N-(3-chlorophenyl)-4-[4-(trifluoromethyl)pyridin-2-yl]piperazine-1-carboxamide]",< 1000
4,"O=C(Nc1cccc(C(F)(F)F)c1)N1CCN(c2ncccc2C(F)(F)F)CC1 [Compound 110, N-[3-(trifluoromethyl)phenyl]-4-[3-(trifluoromethyl)pyridin-2-yl]piperazine-1-carboxamide]",< 1000
5,"COc1cccc(NC(=O)N2CCN(c3ncccc3C(F)(F)F)CC2)c1 [Compound 113, N-(3-methoxyphenyl)-4-[3-(trifluoromethyl)pyridin-2-yl]piperazine-1-carboxamide]",< 1000
6,"O=C(Nc1cccc([N+](=O)[O-])c1)N1CCN(c2ncccc2C(F)(F)F)CC1 [Compound 116, N-(3-nitrophenyl)-4-[3-(trifluoromethyl)pyridin-2-yl]piperazine-1-carboxamide]",< 1000
7,"O=C(Nc1ccc(OC(F)(F)F)cc1)N1CCN(c2ncccc2C(F)(F)F)CC1 [Compound 117, N-[4-(trifluoromethoxy)phenyl]-4-[3-(trifluoromethyl)pyridin-2-yl]piperazine-1-carboxamide]",< 1000
8,"O=C(Nc1ccc(Cl)c([N+](=O)[O-])c1)N1CCN(c2ncccc2C(F)(F)F)CC1 [Compound 118, N-(4-chloro-3-nitrophenyl)-4-[3-(trifluoromethyl)pyridin-2-yl]piperazine-1-carboxamide]",< 1000
9,"O=C(Nc1cc(Cl)cc(Cl)c1)N1CCN(c2ncccc2C(F)(F)F)CC1 [Compound 119, N-(3,5-dichlorophenyl)-4-[3-(trifluoromethyl)pyridin-2-yl]piperazine-1-carboxamide]",< 1000
